Columns and labels:
[1] = test system: mitochondrial respiration; assay: Inhibition of mitochondrial respiration (rate of reduction of cytochrome c in isolated mitochondria), phytopathogenic fungus; assay type: biochemical, Drechslera sorokiniana; conditions: DMSO control
Source text: (§1) It is also possible similarly to isolate mitochondria from other organisms, e.g. from the phytopathogenic fungus Drechslera sorokiniana (synonym: Helminthosporium sativum), from the dermatophyte Trichophyton mentagrophytes, which is a human pathogen, and, for example, from the house fly (Musca domestica) as insect or from the spider mite Tetranychus urticae.
(§2) Used as control is a mixture with the equivalent amount of pure DMSO. The inhibition at the concentration of agent in each case is then calculated as follows [formula] where ΔE is the change in extinction, at is the change in time, [formula] is the reaction rate for the control and [formula] is the reaction rate for the sample x.
(§3) The inhibition was determined in each case at a test substance concentration of 1.8/10^-5mol/l .

[2] = test system: mitochondrial respiration; assay: Inhibition of mitochondrial respiration (rate of reduction of cytochrome c in isolated mitochondria), yeast; assay type: biochemical, Saccharomyces cerevisiae; conditions: DMSO control
Source text: In order to determine the effect of the compounds according to the invention on mitochondrial respiration it is first necessary to isolate the mitochondria from the organisms being investigated. For this, in the case of the yeast Saccharomyces cerevisiae, the cells in a 30 to 40% strength suspension of the yeast in an aqueous solution of 0.6M mannitol+0.01M tris[hydroxymethyl]-aminomethane+0.002M disodium ethylenediaminetetraacetate (pH 6.8) are disrupted in a glass bead mill, and the extract is fractionated by differential centrifugation at 1000× g and 12000× g. The mitochondria are in the pellet from the 12000× g centrifugation.
as §2, §3

[3] = test system: mitochondrial respiration; assay: Inhibition of mitochondrial respiration (rate of reduction of cytochrome c in isolated mitochondria), house fly; assay type: biochemical, Musca domestica; conditions: DMSO control
Source text: as §1, §2, §3

Plasmopara viticola = assay: Activity against Plasmopara viticola on potted vines; assay type: in vivo; conditions: aqueous dispersion containing 250 ppm active ingredient, infected 8 days after spraying
Method: Leaves of potted vines of the Muller Thurgau variety were sprayed with an aqueous liquor which contained 80% of active ingredient and 20% of emulsifier in dry matter. To assess the duration of action of the active ingredient, after the sprayed-on layer had dried the plants were placed in a greenhouse for 8 days. The leaves were then infected with a suspension of Plasmopara viticola zoospores. The vines were then placed first in a chamber saturated with water vapor at 24° C. for 48 hours and then in a greenhouse at from 20° to 30° C. for 5 days. After this, to speed up sporangiophore discharge, the plants were again placed in the humidity chamber for 16 hours. The extent of fungus attack was then assessed on the undersides of the leaves.

[4] = test system: wheat mildew (Erysiphe graminis var. tritici); assay: Activity against wheat mildew on wheat seedlings; assay type: in vivo; conditions: aqueous dispersion containing 250 ppm active ingredient, assessed after 7 days
Method: Leaves of pot-grown wheat seedlings of the Fruhgold variety were sprayed with an aqueous liquor which contained 80% of active ingredient and 20% of emulsifier in dry matter and, 24 hours after the sprayed-on layer had dried, were dusted with spores of wheat mildew (Erysiphe graminis var. tritici). The test plants were then placed in a greenhouse at from 20° to 22° C. and from 75 to 80% relative humidity. The extent of mildew spread was assessed after 7 days.

| Structure (SMILES) | % inhibition of respiration at 1.8 × 10^-5 mol/l test substance, Drechslera sorokiniana [1] [%] | % inhibition of respiration at 1.8 × 10^-5 mol/l test substance, Saccharomyces cerevisiae [2] [%] | % inhibition of respiration at 1.8 × 10^-5 mol/l test substance, Musca domestica [3] [%] | fungal attack, Plasmopara viticola (Plasmopara viticola) [%] | fungal attack, wheat mildew [4] [%] |
| --- | --- | --- | --- | --- | --- |
| COC(=O)/C=C(/OC)c1ccccc1/C=C/c1ccc(-c2ccccc2)cc1 [Compound 1a.268, methyl 2-[2-(4-phenylphenyl)-(E)-ethenyl]-(E)-β-methoxycinnamate] | 97 | 95 | 95 |  |  |
| CON=Cc1cccc(OCc2ccccc2/C(=C\C(=O)OC)OC)c1 [Compound 1a.62] |  | 87 | 74 | 10 |  |
| C=CCON=Cc1cccc(OCc2ccccc2/C(=C\C(=O)OC)OC)c1 [Compound 1a.63] |  | 93 | 85 | 10 | 15 |
| COC(=O)/C=C(/OC)c1ccccc1/C=C/c1ccccc1C(F)(F)F [Compound 1a.243] | 94 | 99 | 89 |  |  |
| COC(=O)/C=C(/OC)c1ccccc1/C=C/c1ccn(-c2ccc(Cl)cc2)c1 [Compound 1a.304] |  | 97 | 96 |  | 15 |
| COC(=O)/C=C(/OC)c1ccccc1/C=C/c1nc(-c2ccc(F)cc2)no1 [Compound 1a.310] |  | 99 |  | 10 |  |
| COC(=O)/C=C(/OC)c1ccccc1/C=C\c1ccccc1C(F)(F)F [Compound 1a.244] |  | 65 | 50 |  |  |
| COC(=O)/C=C(/OC)c1ccccc1/C=C/c1cccs1 [Compound 1a.294] |  | 98 | 95 |  | 15 |
| COC(=O)/C=C(/OC)c1ccccc1COc1nc(-c2ccccc2)sc1C [Compound 1a.182] |  | 98 |  | 10 |  |
| COC(=O)/C=C(/OC)c1ccccc1COc1ccccc1C [Compound 1a.2] |  | 88 | 21 |  | 15 |
| COC(=O)/C=C(/OC)c1ccccc1/C=C/c1ccc(C(F)(F)F)cc1 [Compound 1a.519] |  | 97 | 89 |  |  |
| COC(=O)/C=C(/OC)c1ccccc1/C=C/c1cccc(Oc2ccccc2)c1 [Compound 1a.271] |  | 92 | 94 |  |  |
| COC(=O)/C=C(/OC)c1ccccc1/C=C/c1cc(-c2ccc(Cl)cc2)no1 [Compound 1a.300] |  | 98 | 93 |  |  |
| COC(=O)/C=C(/OC)c1ccccc1/C=C/c1csc(-c2ccc(C)cc2)n1 [Compound 1a.312] |  | 99 |  | 10 |  |
| COC(=O)/C=C(/OC)c1ccccc1/C=C\c1coc(-c2ccc(Cl)cc2)n1 [Compound 1a.303] |  | 98 | 86 |  |  |
| CON=C(C)c1cc(C)c(OCc2ccccc2/C(=C\C(=O)OC)OC)cc1C [Compound 1a.61] |  | 98 | 97 | 10 | 15 |
| COC(=O)/C=C(/OC)c1ccccc1/C=C\c1noc(-c2ccc(Cl)cc2)c1C [Compound 1a.323] |  | 99 |  | 10 |  |
| COC(=O)/C=C(/OC)c1ccccc1/C=C\c1csc(-c2ccccc2)n1 [Compound 1a.307] |  | 58 | 71 |  |  |

| Structure (SMILES) | % inhibition of respiration at 1.8 × 10^-5 mol/l test substance, Drechslera sorokiniana [1] [%] | % inhibition of respiration at 1.8 × 10^-5 mol/l test substance, Saccharomyces cerevisiae [2] [%] | % inhibition of respiration at 1.8 × 10^-5 mol/l test substance, Musca domestica [3] [%] | fungal attack, Plasmopara viticola (Plasmopara viticola) [%] | fungal attack, wheat mildew [4] [%] |
| --- | --- | --- | --- | --- | --- |
| COC(=O)/C=C(/OC)c1ccccc1/C=C/c1cnn(-c2ccc(OC)cc2)c1 [Compound 1a.318] |  | 98 |  | 10 |  |
| COC(=O)/C=C(/OC)c1ccccc1COc1ccc(Oc2ccccc2)cc1 [Compound 1a.31] |  |  |  | 10 |  |
| COC(=O)/C=C(/OC)c1ccccc1/C=C\c1ccccc1[N+](=O)[O-] [Compound 1a.239] |  | 44 | 16 |  | 15 |
| COC(=O)/C=C(/OC)c1ccccc1/C=C/c1csc(-c2ccc(F)cc2)n1 [Compound 1a.394, methyl 2-{2-[2-(4-fluorophenyl)-4-thiazolyl]-(E)-ethenyl}-(E)-β-methoxycinnamate] |  | 96 | 99 | 10 |  |
| COC(=O)/C=C(/OC)c1ccccc1/C=C/c1cccc(C(F)(F)F)c1 [Compound 1a.245] |  | 98 | 91 |  | 15 |
| COC(=O)/C=C(/OC)c1ccccc1/C=C\c1cccc(C(F)(F)F)c1 [Compound 1a.246] |  | 84 | 81 |  | 15 |
| COC(=O)/C=C(/OC)c1ccccc1/C=C\c1ccoc1 [Compound 1a.293] |  | 65 | 27 |  |  |
| COC(=O)/C=C(/OC)c1ccccc1/C=C\c1cccs1 [Compound 1a.295] |  | 94 | 76 |  |  |
| COC(=O)/C=C(/OC)c1ccccc1OCc1csc(-c2ccc(F)cc2)n1 [Compound 1.71, methyl (E)-β-methoxy-2-[2-(4-fluorophenyl)-4-thiazolylmethyloxy]cinnamate] |  | 30 | 18 |  |  |
| COC(=O)/C=C(/OC)c1ccccc1/C=C\c1cnn(-c2ccc(Cl)cc2)c1 [Compound 1a.321] |  | 19 |  | 10 |  |
| CC/C(=C/C(=O)OC)c1ccccc1COc1ccccc1C [Compound 1a.110] |  |  | 12 | 10 |  |
| COC(=O)/C=C(/OC)c1ccccc1/C=C/c1csc(-c2ccccc2)n1 [Compound 1a.306] |  | 98 | 96 |  |  |
| COC(=O)/C=C(/OC)c1ccccc1/C=C/c1ccccc1 [Compound 1a.233] |  | 88 | 89 |  |  |
| COC(=O)/C=C(/OC)c1ccccc1/C=C\c1cccc(Oc2ccccc2)c1 [Compound 1a.272] |  | 51 | 78 |  |  |
| COC(=O)/C=C(/OC)c1ccccc1/C=C/c1ccco1 [Compound 1a.290] |  | 98 | 86 |  | 15 |
| COC(=O)/C=C(/OC)c1ccccc1/C=C\c1ccn(-c2ccc(Cl)cc2)c1 [Compound 1a.305] |  | 30 | 39 |  |  |
| COC(=O)/C=C(/OC)c1ccccc1/C=C/c1cccc([N+](=O)[O-])c1 [Compound 1a.240] |  | 94 | 84 |  |  |

Source: patent US5573999A, “β-substituted cinnamic acid derivative” (BASF Aktiengesellschaft, priority 1991, dated 1996)
